In patent publication US20160154928A1, “SYSTEMS, METHODS, AND ENVIRONMENT FOR AUTOMATED REVIEW OF GENOMIC DATA TO IDENTIFY DOWNREGULATED AND/OR UPREGULATED GENE EXPRESSION INDICATIVE OF A DISEASE OR CONDITION” (IMMUNEERING CORPORATION, priority 2013, published 2016):
Values joined by “and” are separate entries in the source; they are usually repeats but may differ in a detail not shown here. Equal values may be shown once.

Columns and labels:
[1] = test system: NEUROD6 expression; experiment: CMAP (Connectivity Map) expression profiles of cultured cells treated with compounds, searched for increased NEUROD6 expression (single-sample Wilcox test); assay type: cell-based; conditions: for p.val (compounds identified to upregulate enriched NEUROD6 expression): single-sample Wilcox test on CMAP expression profiles, cultured cells after treatment
Description: The full CMAP (builds 01 and 02) datasets were obtained from the Broad Institute. […] The output p-values were adjusted for multiple hypothesis testing (FDR p value <0.05).

[2] = test system: mouse model of AD; conditions: cited from earlier work
[3] = test system: SNAP25 expression; experiment: CMAP (Connectivity Map) expression profiles of cultured cells treated with compounds, searched for increased SNAP25 expression (single-sample Wilcox test); assay type: cell-based
Description: The CMAP dataset is a large collection of microarray-based transcriptional signatures that includes over 7,000 expression profiles from cultured cells treated with 1,309 compounds. The full CMAP (builds 01 and 02) datasets were obtained from the Broad Institute. […] The output p-values were adjusted for multiple hypothesis testing (FDR p value <0.05).

[4] = test system: mouse models of AD; conditions: cited from earlier work
[5] = test system: female mouse model of AD; conditions: cited from earlier work

O=c1c(-c2ccc(O)cc2)coc2cc(O)cc(O)c12 [genistein]
effect on NEUROD6 expression ([1]; CMAP analysis, in words): significantly elevate expression of NEUROD6

CC(C)c1ccc2c(c1)c(SC(C)(C)C)c(CC(C)(C)C(=O)O)n2Cc1ccc(Cl)cc1 [MK-886]
p.val (compounds identified to upregulate enriched NEUROD6 expression) [1]: 2.46E−04

C[C@@H]1C[C@H]2O[C@@H]2/C=C\C=C\C(=O)Cc2c(Cl)c(O)cc(O)c2C(=O)O1 [monorden]
p.val (compounds identified to upregulate enriched NEUROD6 expression) [1]: 2.17E−04 and 2.82E−04

CCN1C[C@]2(C)CC[C@H](O)[C@]34C1[C@@H](C[C@H]23)[C@@]1(O)C[C@H](OC)[C@H]2C[C@@H]4[C@@H]1[C@H]2O [karakoline]
cognitive function [2]: improve cognitive function

CN(C(=O)C(Cl)Cl)c1ccc(O)cc1 [diloxanide]
p.val (compounds identified to upregulate enriched SNAP25 expression) ([3]; single-sample Wilcox test on CMAP expression profiles, cultured cells after treatment): 1.28E−04

C=C1C[C@@H](O)[C@H](/C=C/[C@@H](O)C(C)(C)CCCC)[C@H]1C/C=C\CCCC(=O)O [meteneprost]
p.val (compounds identified to upregulate enriched NEUROD6 expression) [1]: 2.05E−04

CCCC(CCC)C(=O)O [valproic acid]
Aβ production [4]: limit Aβ production
behavioral deficits [4]: limit Aβ production and behavioral deficits
loss of neurons [4]: protect against loss of neurons
effect on SNAP25 expression ([3]; CMAP analysis, in words): significantly elevate SNAP25 expression

O=CC[C@@H](O)[C@H](O)[C@H](O)CO [2-deoxy-D-glucose]
pathology [5]: reduce pathology
